The source of these data is ChEMBL document CHEMBL1681719, “Synthesis and evaluation of 1,5-diaryl-substituted tetrazoles as novel selective cyclooxygenase-2 (COX-2) inhibitors” (Bioorg Med Chem Lett, 2011).

Assay [1] concerns the target T1, Prostaglandin G/H synthase 2 (Homo sapiens, UniProt P35354).
T1 sequence (P35354 whole entry): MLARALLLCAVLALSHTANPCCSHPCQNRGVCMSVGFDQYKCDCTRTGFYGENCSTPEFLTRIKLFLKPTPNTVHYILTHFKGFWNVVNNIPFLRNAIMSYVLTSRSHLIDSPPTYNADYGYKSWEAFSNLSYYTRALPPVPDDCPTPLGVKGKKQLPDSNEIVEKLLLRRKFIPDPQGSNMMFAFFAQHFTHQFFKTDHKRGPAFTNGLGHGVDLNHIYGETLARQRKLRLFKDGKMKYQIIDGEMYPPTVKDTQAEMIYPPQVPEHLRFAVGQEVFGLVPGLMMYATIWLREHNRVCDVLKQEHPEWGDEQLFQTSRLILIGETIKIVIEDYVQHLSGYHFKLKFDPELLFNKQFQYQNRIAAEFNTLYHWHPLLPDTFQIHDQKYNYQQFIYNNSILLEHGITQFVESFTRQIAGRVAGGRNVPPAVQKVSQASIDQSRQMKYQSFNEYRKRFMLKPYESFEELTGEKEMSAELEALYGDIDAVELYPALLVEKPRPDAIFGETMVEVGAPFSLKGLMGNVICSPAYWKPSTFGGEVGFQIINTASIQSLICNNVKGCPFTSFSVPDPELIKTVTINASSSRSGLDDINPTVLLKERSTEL
Nature of the assay: Inhibition of human recombinant COX-2 by fluorescence assay.

Assay [2] addresses T2, Prostaglandin G/H synthase 1 (Ovis aries, UniProt P05979).
T2 sequence (P05979 whole entry): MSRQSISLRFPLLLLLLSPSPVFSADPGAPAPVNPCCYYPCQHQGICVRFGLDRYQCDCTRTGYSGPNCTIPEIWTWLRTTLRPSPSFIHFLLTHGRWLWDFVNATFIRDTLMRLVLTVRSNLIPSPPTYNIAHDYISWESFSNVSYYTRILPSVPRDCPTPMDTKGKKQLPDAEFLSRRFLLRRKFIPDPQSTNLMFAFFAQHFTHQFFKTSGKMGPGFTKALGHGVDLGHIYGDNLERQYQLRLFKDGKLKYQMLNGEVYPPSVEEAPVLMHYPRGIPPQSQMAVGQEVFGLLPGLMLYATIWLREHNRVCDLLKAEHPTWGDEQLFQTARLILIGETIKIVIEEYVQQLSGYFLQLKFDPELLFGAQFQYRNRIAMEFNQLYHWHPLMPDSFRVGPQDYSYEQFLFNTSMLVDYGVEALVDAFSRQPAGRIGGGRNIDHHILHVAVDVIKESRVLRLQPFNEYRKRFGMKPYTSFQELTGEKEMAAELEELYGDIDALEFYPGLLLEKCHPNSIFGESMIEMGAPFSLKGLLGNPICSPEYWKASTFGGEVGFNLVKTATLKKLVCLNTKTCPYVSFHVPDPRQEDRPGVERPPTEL
The assay can be described thus: Inhibition of ovine COX-1 by fluorescence assay.

Assay [3] can be described thus: Selectivity index ratio of IC50 for ovine COX-1 to IC50 for human recombinant COX-2.

Each structure is given as a SMILES string.

As for `CS(=O)(=O)c1ccc(-c2nnnn2-c2ccc(Cl)cc2)cc1`, the IC50 turned out to be 110 µM in assay [1] and 500 µM in assay [2]. The Ratio IC50 in assay [3] is 4.5.

`Cc1ccc(-n2nnnc2-c2ccc(S(C)(=O)=O)cc2)cc1`: the IC50 worked out at 45 µM in assay [1] and 8100 µM in assay [2]. The Ratio IC50 in assay [3] was 180.

With `COc1ccc(-n2nnnc2-c2ccc(S(C)(=O)=O)cc2)cc1`, the IC50 was 2 µM in assay [1] and 420 µM in assay [2]. In addition, in assay [3], the Ratio IC50 amounted to 210.

As for `CS(=O)(=O)c1ccc(-c2nnnn2-c2ccccc2)cc1`, the results for the 50% inhibitory concentration (IC50) in assay [1] and in assay [2] were 200 µM and 3700 µM, respectively. For the same compound, the Ratio IC50 in assay [3] worked out at 18.5.

Consider `CS(=O)(=O)c1ccc(-c2nnnn2-c2ccc(F)cc2)cc1`, for which the concentration for half-maximal inhibition (IC50) in assay [1] was 2.7 µM; in assay [2] it was 640 µM. Further, the Ratio IC50 in assay [3] is 237.
